{"source": "patent US20220354121A1", "about": "“EXTERNALLY HEATED GEL REPELLENT” (Lamplight Farms Incorporated, priority 2021, published 2022)", "origin": "cited, not measured here", "test_system": "insect", "conditions": "release into local atmosphere"}
{"smiles": "C/C=C/C1C(C(=O)OCc2c(F)c(F)c(COC)c(F)c2F)C1(C)C", "note": "(stereo not shown) [metofluthrin]", "values": [{"measurement": "metofluthrin release known to be sufficient for local repellency purposes", "result": "7 to 12", "unit": "mg/h"}]}
